In patent US11872236B2, “Pharmacological agents for treating ocular diseases” (CALASIA PHARMACEUTICALS, INC., priority 2018, dated 2024):
Converted amounts (≈) assume the structure as drawn. Like-named read-outs stand apart in the source and are kept apart here.

Columns and labels:
alpha-A crystalline = target: T1, alpha-A crystalline (Homo sapiens, UniProt P02489); assay: Ca+2 and UVC induced aggregation of alpha-A crystalline (absorbance screen); assay type: biochemical; conditions: for inhibition at 200 µM: Ca+2 and UVC induced aggregation of alpha-A crystalline, read-out: Percent protection (at 200 μM); for EC50: preventing Ca+2 and UVC induced aggregation of alpha-A crystalline;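 as to all read-outs here: recombinant human alpha-A crystallin (500 µg/ml) preincubated 30 min with compound, then UV-induced aggregation tracked by absorbance at time points from 0 to 120 min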
T1 sequence (P02489 1-173): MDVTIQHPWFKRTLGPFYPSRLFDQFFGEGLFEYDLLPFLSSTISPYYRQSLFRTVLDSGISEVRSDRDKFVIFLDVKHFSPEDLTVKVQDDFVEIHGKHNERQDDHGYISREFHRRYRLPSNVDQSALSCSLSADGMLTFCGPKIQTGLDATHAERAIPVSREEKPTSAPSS

TTR = TTR (Homo sapiens, UniProt P02766); conditions: Sant'Anna, R. et al. (2016); cited from earlier work
SRA 01/04 HLE cells = assay: Cell-based UV protection, viability by Alamar blue; set-up: species or system human; conditions: Table 5;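 also: cells pretreated with compound at a range of concentrations before UV irradiation, viability read 24 h after exposure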
[1] = system: human lens epithelial (HLE) cells; assay: Cell-based heat protection, viability by Alamar blue; set-up: Cell Heat % protection: concentration or dose not given beside the values; conditions: for Cell-based [Heat] (max % net protection): Table 5
Method: Alamar blue was used for assessing viability. Mean±SEM of the measurements are shown.
Cell-based using assays using human lens epithelial cell lines SRA 01/04 and B3 were also performed. The cells were exposed to UV or heat and cell viability assessed 24 hours post-exposure by Alamar blue staining. In another experiment, SRA 01/04 cells were pre-incubated with varying concentrations of compounds two hours prior to UV exposure. Relative protection was measured as percent viability compared to vehicle control 24 hours following UV exposure. Mean±SEM of the measurements are shown.

[2] = Solubility with FDA approved excipients; assay type: physicochemical
Method: Solubility: The solubility of CAP1160 and CAP4196 was tested with different FDA approved excipients such as cyclodextrin, PEG-b-PCL, Kolliphor-EL, Kolliphor-40, sorbitol, propelyne gycol, sodium phosphate, etc. […] This makes the formulation safe for topical use (see Table 6).

porcine eye lens = assay: Ex vivo eye lens exposed to UVC radiation, cataract scoring; conditions: Table 8; printed as a percentage
Method: The top row of the figure corresponds to lenses that were not exposed to UVC but contained same percent of DMSO as those that were exposed to UVC. The lenses were monitored and imaged for three days following the exposure to UVC. No drug was added to the lenses post UVC exposure.

[3] = system: New Zealand white rabbits; assay: Ocular safety / MTD, repeated dose for 7 days; assay type: in vivo; conditions: for Mortality and Morbidity: 50 μL × 4 times a day in each eye, male
Method: Prodrug CAP4196 is well-tolerated up to 10% concentration in New Zealand white rabbits. Initial maximum tolerated dose studies (MTD) help identify observable signs of toxicity and provide a rationale for setting dose levels in later definitive studies. Therefore, the MTD of CAP4196 was evaluated in New Zealand white rabbits. Four animals per group were dosed with increasing concentrations (0.25, 2.5, 8 and 10%) of CAP4196 at 50 μl volume q.i.d. dosing at 2 hrs interval. Following the dosing, the animals were evaluated for mortality and morbidity, ophthalmological examination, body weight, and clinical pathology before start of dosing then on dosing days 2, 4, and 6 prior to first dose instillation and on day 7, one hour after last dose instillation.

SMILES | Cell-based [UV] (max % net protection) (SRA 01/04 HLE cells) [%] | Cell-based [Heat] (max % net protection) [1] [%] | also measured
Cc1ccc(C(=O)c2cc(O)c(O)c([N+](=O)[O-])c2)cc1 [CAP1160, Tolcapone] | 68 | 23 | inhibition at 200 µM (alpha-A crystalline): 65%; EC50 (alpha-A crystalline): 63.5 µM; TTR aggregation inhibition (TTR): potent TTR aggregation inhibitor; With Kolliphor 40 (1:1) In water [2]: 1; With PEG-b-PCL (1:1) mg/ml in water [2]: 1 mg/mL; improvement in solubility [2]: 10 fold; solubility ([2]; aqueous with cosolvent or surfactant or cyclodextrin, Solubility in water with (2-hydroxypropyl)-beta cyclodextrin mg/ml (1:1)): 2 mg/mL (≈ 7.32 mM); solubility ([2]; aqueous with cosolvent or surfactant or cyclodextrin, solubility): 1.5 mg/mL (≈ 5.49 mM); solubility ([2]; water, Solubility in water mg/ml): 0.1 mg/mL (≈ 0.366 mM)
O=C(c1ccccc1)c1ccc(O)c(O)c1 [CAP1347] | 28 | 8 | inhibition at 200 µM (alpha-A crystalline): 13%; EC50 (alpha-A crystalline): 115 µM
O=C(c1cc(O)c(O)c([N+](=O)[O-])c1)c1ccccc1F [CAP3089] | 31 | 0 | inhibition at 200 µM (alpha-A crystalline): 56%; EC50 (alpha-A crystalline): 362 µM
Nc1ccc(C(=O)c2ccccc2)cc1N [CAP4129] | 37 | 0 | 
COc1ccc(C(=O)c2ccccc2)cc1 [CAP4130] | 55 | 42 | 
COc1ccc(C(=O)c2ccccc2)cc1OC [CAP4132] | 39 | 0 | 
O=C(c1ccccc1)c1ccc(O)c(O)c1O [CAP4133] | 22 | 18 | 
COc1cc(O)c(C(=O)c2ccccc2)cc1S(=O)(=O)[O-].[Na+] [CAP4135] | 75 | 4 | 
COc1cc(O)c(C(=O)c2cc(S(=O)(=O)[O-])c(OC)cc2O)cc1S(=O)(=O)[O-].[Na+].[Na+] [CAP4136] | 70 | 5 | 
Cc1ccc(C(=O)c2ccccc2)c(N)c1 [CAP4152] | 17 | 0 | 
O=C(O)c1ccc(C(=O)c2ccc(C(=O)O)cc2)cc1 [CAP4160] | 82 | 0 | 
O=C(c1cccc(F)c1)c1cccc(F)c1 [CAP4161] | 38 | 8 | 
COc1cc(O)c(C(=O)c2ccccc2)cc1S(=O)(=O)O [CAP4162] | 60 | 3 | 
O=C(O)c1ccc(C(=O)c2ccccc2)cc1 [CAP4172] | 67 | 9 | 
O=C(O)c1ccc(C(=O)c2ccccc2C(=O)O)cc1 [CAP4173] | 61 | 0 | 
CNc1ccc2c(O)cc(S(=O)(=O)O)cc2c1 [CAP4184] |  |  | Cell Heat % protection ([1]; Table 8): 4%; Ex-vivo (porcine eye lens): 15%
Cc1ccc(C(=O)c2cc(OP(=O)([O-])[O-])c(O)c([N+](=O)[O-])c2)cc1.[Na+].[Na+] [CAP4196, Sodium 2-hydroxy-5-(4-methylbenzoyl)-3-nitrophenyl phosphate] | 63 | 38 | local reactions ([3]; 10% w/v, 50 μL, 4 times a day): only few temporary local reactions like excessive rubbing of eyes and redness; systemic toxicity ([3]; 10% w/v, 50 μL, 4 times a day): did not produced any systemic toxicity; MTD (highest dose concentration) ([3]; 50 μL, 4 times a day, 2 hours interval, 7 days): 10%; Mortality and Morbidity ([3]; ophthalmic formulation 0.25% w/v): 0; Mortality and Morbidity ([3]; ophthalmic formulation 4% w/v): 0; Mortality and Morbidity ([3]; ophthalmic formulation 8% w/v): 0; Mortality and Morbidity ([3]; ophthalmic formulation 10% w/v): 0; well-tolerated concentration ([3]; topical ocular, repeated dose 7 days): up to 10%; pH of the formulation ([2]; 100 mg/ml, only water as solvent): 6.65; solubility ([2]; aqueous with cosolvent or surfactant or cyclodextrin, water with (2-hydroxypropyl)-beta cyclodextrin (1:1), read-out: Solubility in water with (2-hydroxypropyl)-beta cyclodextrin mg/ml (1:1)): 100 mg/mL; solubility ([2]; pH 6.65, only water as solvent, read-out: solubility): 100 mg/mL; improvement in solubility ([2]; phosphate prodrug, only water as solvent): greater than 660 fold; solubility ([2]; water, read-out: Solubility in water): 100 mg/mL
O=C(c1cccc([N+](=O)[O-])c1)c1ccc2c(c1)C(=O)OC2=O [CAP4265] | 129 | 17 | 
O=C(c1ccccc1)c1ccccc1S(=O)(=O)c1ccccc1 [CAP4279] | 5 | 0 | 
NC(=O)Cc1cccc(C(=O)c2ccccc2)c1N [CAP4281] | 38 | 8 | 
